Results taken from PubChem BioAssay AID2060508 (Molecular Pharmacology Branch, DTP, NCI, 2025).
pIC50: −log10 of the molar value. Where “and” joins values, the source holds several entries; their conditions need not be identical. Equal entries are not always repeated.

System: 454973-116-R2-J3-PDC spheroids, viability, % test/control
Assay: Anticancer human tumor 454973-116-R2-J3-PDC patient-derived pancreatic carcinoma cell line growth inhibition [GQUAD]
Conditions: spheroids with HUVEC and MSC; for viability, T/C: stronger effect = lower value
From the text: DNA G-quadruplex Stabilizer Agents in Combinations in Complex Spheroids
A high-throughput screen of multi-cell type tumor spheroids was designed to identify active combinations of DNA G-quadruplex stabilizer agents and targeted small molecules. Complex spheroids include a stromal component modeled by human endothelial cells (HUVEC) and fibroblasts modeled by human mesenchymal stem cells (MSCs). The concentration ranges selected for each drug and investigational agent were based upon clinically achievable concentrations if the clinical Cmax of the agent was known.
Compounds. The drugs and investigational agents: pidnarulex (CX-5461; NSC782164), APTO-253 (NSC789042), BRACO-19 (NSC847499), peposertib (NSC802822), ceralasertib (NSC780249), elimusertib (NSC800525), camonsertib (NSC841442), AZD-1390 (NSC803789), olaparib (NSC753686), talazoparib (NSC767125), ART-558 (NSC835418), sotorasib (NSC818433), MRTX-1133 (NSC836407), SN-38 (NSC673596), topotecan (NSC609699), etoposide (NSC141540), doxorubicin (NSC123127), gemcitabine (NSC613327), 5-fluorouracil (NSC19893), paclitaxel (NSC125973), vemurafenib (NSC761431), panobinostat (NSC761190), R-306465 (JNJ-16241199; NSC773264), adavosertib (NSC754352), TP-3654 (NSC805149), carboplatin (NSC241240), KSQ-4279 (NSC840948), and staurosporine (NSC755774) were obtained from the National Cancer Institute (NCI) Developmental Therapeutics Program Chemical Repository (34). The FDA-approved anticancer drug set is available from the NCI Developmental Therapeutics Program. […] The stock solutions were prepared in dimethyl sulfoxide (DMSO, Sigma-Aldrich, St. Louis, MO, cat. D2650) at 800-fold the tested concentration and stored at -70 degrees C prior to their use. All drugs and investigational agents were tested over a range starting from a high concentration at or near the clinical Cmax and decreasing in half-log increments. If the clinical Cmax for an agent had not been determined, the highest concentration tested was 10 microM.
2.3 Cell Culture. All cells were maintained in an incubator at 37 degrees C and 5% CO2 with 95% humidity. The PDC lines were cultured according to standard operating procedures established by the NCI PDMR. All PDCs were thawed and cultured in Matrigel-coated flasks prepared with a working solution of 1X Ham's F-12 nutrient mix, without supplementation (Invitrogen, cat. 11765054), 100 U/mL penicillin-streptomycin (Invitrogen, cat. 15140122), and 2.5% Matrigel (Corning Inc., cat. 354248) for the first three passages. The 857933-349-R-J2-PDC line was cultured in 6C/Colon 1B media, which includes advanced DMEM/F-12 (Thermo Fisher Scientific, cat. 12634028), 10 mM HEPES (Thermo Fisher Scientific, cat. 15630080), 1X GlutaMAX supplement (Thermo Fisher Scientific, cat. 35050061), 0.1 mg/mL primocin (InvivoGen, cat. ant-pm-2), 10% defined fetal bovine serum, heat inactivated (HyClone Laboratories Inc., cat. SH30070.03HI), 50% L-WRN conditioned media (ATCC, cat. CRL-3276), 1.25 mM N-Acetyl-L-cysteine (Sigma-Aldrich, cat. A9165), 10 mM nicotinamide (Sigma-Aldrich, cat. N0636), 1X B-27 supplement (Thermo Fisher Scientific, cat. 17504044), 1X N-2 supplement (Thermo Fisher Scientific, cat. 17502048), 10 microM Y-27632 dihydrochloride (Tocris Bioscience, cat. 1254), and 50 ng/mL human EGF recombinant protein (Thermo Fisher Scientific, cat. PHG0311). The 485176-168-R4-J1-PDC line was cultured in Panc media, which includes all 6C/Colon 1B media components plus 100 ng/mL human FGF-10 (Thermo Fisher Scientific, cat. 100-26), 500 nM SB-431542 (Selleckchem, cat. S1067), and gastrin (Tocris, cat. 3006).
[…]
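Further: spheroids exposed to compounds for seven days.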

For O=C(c1cc(Cc2n[nH]c(=O)c3ccccc23)ccc1F)N1CCN(C(=O)C2CC2)CC1, the viability, T/C (compound 0.0316 µM) was 101% and 114% and 107%, the viability, T/C (compound 0.1 µM) was 90.7% and 97.5% and 95.4% and the viability, T/C (compound 0.316 µM) was 91.1% and 97.2% and 91.3%. The viability, T/C (compound 1 µM) was 96.4% and 96.3% and 90.3%, the viability, T/C (compound 3.16 µM) was 83.8% and 88.4% and 87.7% and the viability, T/C (compound 10 µM) was 63.8% and 66.6% and 66.7%. The pIC50 (curve of compound) was less than 5.00.
In the case of C#Cc1c(F)ccc2cc(O)cc(-c3ncc4c(N5CC6CCC(C5)N6)nc(OCC56CCCN5CC(F)C6)nc4c3F)c12 (stereo not drawn), the viability, T/C (compound 0.0316 µM) was 52.7% and 54.6% and 60.6%, the viability, T/C (compound 0.1 µM) was 42.3% and 39% and 39.8% and the viability, T/C (compound 0.316 µM) was 31.2% and 22.9% and 28.2%. For the same compound, the viability, T/C (compound 1 µM) was 27.5% and 20.6% and 21.6%, the viability, T/C (compound 3.16 µM) was 23.3% and 19.5% and 22% and the viability, T/C (compound 10 µM) was 19% and 15.4% and 15.2%. For the same compound, the pIC50 (curve of compound) was 7.37 and 7.35 and 7.25.
For CC1COCCN1c1cc(C2(O)CC3CCC(C2)O3)c2cnn(-c3ccn[nH]3)c2n1 (stereo not drawn), the viability, T/C (compound 0.0316 µM) was 84.7% and 87.2% and 97.5%, the viability, T/C (compound 0.1 µM) was 58.4% and 59.4% and 64.2% and the viability, T/C (compound 0.316 µM) was 26.5% and 26.1% and 27.2%. The viability, T/C (compound 1 µM) was 18% and 21.5% and 23.2%, the viability, T/C (compound 3.16 µM) was 17.8% and 23.5% and 22.9% and the viability, T/C (compound 10 µM) was 12% and 10.9% and 14.2%. For the same compound, the pIC50 (curve of compound) was 6.87 and 6.86 and 6.80.
CC(C)(O)C1CCC(Nc2ccc3ncc(-c4cccc(C(F)(F)F)c4)n3n2)CC1 (stereo not drawn) was tested, and the viability, T/C (compound 0.0316 µM) was 105% and 109% and 106%, the viability, T/C (compound 0.1 µM) was 99.6% and 101% and 93.8% and the viability, T/C (compound 0.316 µM) was 98.4% and 95.2% and 111%. For the same compound, the viability, T/C (compound 1 µM) was 77.4% and 76.5% and 90.4%, the viability, T/C (compound 3.16 µM) was 30.5% and 26.7% and 22.5% and the viability, T/C (compound 10 µM) was 35% and 28.9% and 29.6%. For the same compound, the pIC50 (curve of compound) was 5.69 and 5.73.
O=C(NO)c1cnc(N2CCN(S(=O)(=O)c3ccc4ccccc4c3)CC2)nc1 was tested, and the viability, T/C (compound 0.0316 µM) was 107% and 108% and 101%, the viability, T/C (compound 0.1 µM) was 78.2% and 86.9% and 86.3% and the viability, T/C (compound 0.316 µM) was 27.8% and 30.5% and 22.7%. The viability, T/C (compound 1 µM) was 1.65% and 3.03% and 1.16%, the viability, T/C (compound 3.16 µM) was 0.25% and 0.22% and 0.12% and the viability, T/C (compound 10 µM) was 0.25% and 0.95% and 0.29%. For the same compound, the pIC50 (curve of compound) was 6.72 and 6.67 and 6.71.
For COc1cc(C2c3cc4c(cc3C(OC3OC5COC(C)OC5C(O)C3O)C3COC(=O)C23)OCO4)cc(OC)c1O (stereo not drawn), the viability, T/C (compound 0.0316 µM) was 106% and 98.1% and 115%, the viability, T/C (compound 0.1 µM) was 94.7% and 92.3% and 78.7% and the viability, T/C (compound 0.316 µM) was 85.6% and 89.4% and 87.1%. For the same compound, the viability, T/C (compound 1 µM) was 55.2% and 52.1% and 61.5%, the viability, T/C (compound 3.16 µM) was 23.5% and 22.8% and 25.1% and the viability, T/C (compound 10 µM) was 15.8% and 12.7% and 15.5%. For the same compound, the pIC50 (curve of compound) was 5.93 and 5.95 and 5.86.
With CCc1c2c(nc3ccc(O)cc13)-c1cc3c(c(=O)n1C2)COC(=O)[C@]3(O)CC the viability, T/C (compound 0.000999 µM) was 67.3% and 74.7% and 64.5%, the viability, T/C (compound 0.00316 µM) was 29.2% and 22.9% and 21.4% and the viability, T/C (compound 0.00999 µM) was 22.2% and 25.2% and 19.8%. The viability, T/C (compound 0.0316 µM) was 14.2% and 15.5% and 15.7%, the viability, T/C (compound 0.0999 µM) was 9.13% and 8.23% and 8.16% and the viability, T/C (compound 0.316 µM) was 4.31% and 4.99% and 4.01%. The pIC50 (curve of compound) was 8.75 and 8.74 and 8.82.
For Cn1ncnc1[C@H]1c2n[nH]c(=O)c3cc(F)cc(c23)N[C@@H]1c1ccc(F)cc1 + Cc1[nH]c2ccc(F)cc2c1-c1nc2c3cccnc3c3ncccc3c2[nH]1, the pIC50 (curve of first compound, second compound 0.0316 µM) was less than 6.50, the pIC50 (curve of first compound, second compound 0.1 µM) was less than 6.50 and the pIC50 (curve of first compound, second compound 0.316 µM) was less than 6.50. It also gave a pIC50 (curve of first compound, second compound 1 µM) of less than 6.50, a pIC50 (curve of first compound, second compound 3.16 µM) of less than 6.50 and a pIC50 (curve of first compound, second compound 10 µM) of less than 6.50. For the same compound, the viability, T/C (second compound 0.0316 µM, first compound 0.000999 µM) was 115%, the viability, T/C (second compound 0.0316 µM, first compound 0.00316 µM) was 95.3% and the viability, T/C (second compound 0.0316 µM, first compound 0.00999 µM) was 101%. The viability, T/C (second compound 0.0316 µM, first compound 0.0316 µM) was 87.7%, the viability, T/C (second compound 0.0316 µM, first compound 0.0999 µM) was 97.4% and the viability, T/C (second compound 0.0316 µM, first compound 0.316 µM) was 84%. For the same compound, the viability, T/C (second compound 0.1 µM, first compound 0.000999 µM) was 93.6%, the viability, T/C (second compound 0.1 µM, first compound 0.00316 µM) was 97.6% and the viability, T/C (second compound 0.1 µM, first compound 0.00999 µM) was 94.4%. For the same compound, the viability, T/C (second compound 0.1 µM, first compound 0.0316 µM) was 104%, the viability, T/C (second compound 0.1 µM, first compound 0.0999 µM) was 86.1% and the viability, T/C (second compound 0.1 µM, first compound 0.316 µM) was 77.6%. The viability, T/C (second compound 0.316 µM, first compound 0.000999 µM) was 101%, the viability, T/C (second compound 0.316 µM, first compound 0.00316 µM) was 99.6% and the viability, T/C (second compound 0.316 µM, first compound 0.00999 µM) was 91.9%. For the same compound, the viability, T/C (second compound 0.316 µM, first compound 0.0316 µM) was 92.7%, the viability, T/C (second compound 0.316 µM, first compound 0.0999 µM) was 90.7% and the viability, T/C (second compound 0.316 µM, first compound 0.316 µM) was 83.8%. The viability, T/C (second compound 1 µM, first compound 0.000999 µM) was 107%, the viability, T/C (second compound 1 µM, first compound 0.00316 µM) was 104% and the viability, T/C (second compound 1 µM, first compound 0.00999 µM) was 91.6%. For the same compound, the viability, T/C (second compound 1 µM, first compound 0.0316 µM) was 98%, the viability, T/C (second compound 1 µM, first compound 0.0999 µM) was 83.5% and the viability, T/C (second compound 1 µM, first compound 0.316 µM) was 81%. For the same compound, the viability, T/C (second compound 3.16 µM, first compound 0.000999 µM) was 93.9%, the viability, T/C (second compound 3.16 µM, first compound 0.00316 µM) was 98.5% and the viability, T/C (second compound 3.16 µM, first compound 0.00999 µM) was 92.1%. It also gave a viability, T/C (second compound 3.16 µM, first compound 0.0316 µM) of 83%, a viability, T/C (second compound 3.16 µM, first compound 0.0999 µM) of 82.3% and a viability, T/C (second compound 3.16 µM, first compound 0.316 µM) of 82%. For the same compound, the viability, T/C (second compound 10 µM, first compound 0.000999 µM) was 87.4%, the viability, T/C (second compound 10 µM, first compound 0.00316 µM) was 100% and the viability, T/C (second compound 10 µM, first compound 0.00999 µM) was 93%. It also gave a viability, T/C (second compound 10 µM, first compound 0.0316 µM) of 78.4%, a viability, T/C (second compound 10 µM, first compound 0.0999 µM) of 82.4% and a viability, T/C (second compound 10 µM, first compound 0.316 µM) of 76.1%.
With C=CCn1c(=O)c2cnc(Nc3ccc(N4CCN(C)CC4)cc3)nc2n1-c1cccc(C(C)(C)O)n1 the viability, T/C (compound 0.0316 µM) was 108% (2×) and 104%, the viability, T/C (compound 0.1 µM) was 104% and 86.2% and 90.6% and the viability, T/C (compound 0.316 µM) was 54.8% and 68.5% and 59.1%. For the same compound, the viability, T/C (compound 1 µM) was 17.5% and 15.8% and 14.5%, the viability, T/C (compound 3.16 µM) was 7.41% and 7.71% and 9.27% and the viability, T/C (compound 10 µM) was 9.65% and 8.23% and 9.05%. The pIC50 (curve of compound) was 6.43 and 6.34 and 6.41.
